Data published in the NIST ThermoML archive (doi:10.1016/j.tca.2016.08.008).

O=P([O-])([O-])[O-].[Tb+3] [terbium orthophosphate]
101.33 kPa, Metastable crystal
Details | mass density [kg/m3] | molar entropy [J/K/mol]
7 K, Vacuum adiabatic calorimetry | – | 0.0744
8 K, Vacuum adiabatic calorimetry | – | 0.1113
9 K, Vacuum adiabatic calorimetry | – | 0.1586
10 K, Vacuum adiabatic calorimetry | – | 0.2174
12 K, Vacuum adiabatic calorimetry | – | 0.3747
14 K, Vacuum adiabatic calorimetry | – | 0.5915
16 K, Vacuum adiabatic calorimetry | – | 0.8724
18 K, Vacuum adiabatic calorimetry | – | 1.219
20 K, Vacuum adiabatic calorimetry | – | 1.627
25 K, Vacuum adiabatic calorimetry | – | 2.889
30 K, Vacuum adiabatic calorimetry | – | 4.414
35 K, Vacuum adiabatic calorimetry | – | 6.129
40 K, Vacuum adiabatic calorimetry | – | 7.99
45 K, Vacuum adiabatic calorimetry | – | 9.975
50 K, Vacuum adiabatic calorimetry | – | 12.07
55 K, Vacuum adiabatic calorimetry | – | 14.26
60 K, Vacuum adiabatic calorimetry | – | 16.53
70 K, Vacuum adiabatic calorimetry | – | 21.26
80 K, Vacuum adiabatic calorimetry | – | 26.15
90 K, Vacuum adiabatic calorimetry | – | 31.12
100 K, Vacuum adiabatic calorimetry | – | 36.12
110 K, Vacuum adiabatic calorimetry | – | 41.09
120 K, Vacuum adiabatic calorimetry | – | 46.02
130 K, Vacuum adiabatic calorimetry | – | 50.9
140 K, Vacuum adiabatic calorimetry | – | 55.72
150 K, Vacuum adiabatic calorimetry | – | 60.46
160 K, Vacuum adiabatic calorimetry | – | 65.13
170 K, Vacuum adiabatic calorimetry | – | 69.73
180 K, Vacuum adiabatic calorimetry | – | 74.26
190 K, Vacuum adiabatic calorimetry | – | 78.71
200 K, Vacuum adiabatic calorimetry | – | 83.09
210 K, Vacuum adiabatic calorimetry | – | 87.39
220 K, Vacuum adiabatic calorimetry | – | 91.63
230 K, Vacuum adiabatic calorimetry | – | 95.79
240 K, Vacuum adiabatic calorimetry | – | 99.88
250 K, Vacuum adiabatic calorimetry | – | 103.9
260 K, Vacuum adiabatic calorimetry | – | 107.9
270 K, Vacuum adiabatic calorimetry | – | 111.7
280 K, Vacuum adiabatic calorimetry | – | 115.6
290 K, Vacuum adiabatic calorimetry | – | 119.3
298 K, X-ray diffraction | 6088 | –
300 K, Vacuum adiabatic calorimetry | – | 123
310 K, Vacuum adiabatic calorimetry | – | 126.6
320 K, Vacuum adiabatic calorimetry | – | 130.2
325 K, Vacuum adiabatic calorimetry | – | 132
340 K, Small sample (50 mg) DSC | – | 137.1
360 K, Small sample (50 mg) DSC | – | 143.9
380 K, Small sample (50 mg) DSC | – | 150.4
400 K, Small sample (50 mg) DSC | – | 156.7
420 K, Small sample (50 mg) DSC | – | 162.7
440 K, Small sample (50 mg) DSC | – | 168.6
460 K, Small sample (50 mg) DSC | – | 174.3
480 K, Small sample (50 mg) DSC | – | 179.8
500 K, Small sample (50 mg) DSC | – | 185.2
520 K, Small sample (50 mg) DSC | – | 190.4
540 K, Small sample (50 mg) DSC | – | 195.4
560 K, Small sample (50 mg) DSC | – | 200.3
580 K, Small sample (50 mg) DSC | – | 205.1
600 K, Small sample (50 mg) DSC | – | 209.7
620 K, Small sample (50 mg) DSC | – | 214.2
640 K, Small sample (50 mg) DSC | – | 218.6
660 K, Small sample (50 mg) DSC | – | 222.8
680 K, Small sample (50 mg) DSC | – | 227
700 K, Small sample (50 mg) DSC | – | 231
720 K, Small sample (50 mg) DSC | – | 235
740 K, Small sample (50 mg) DSC | – | 238.8
760 K, Small sample (50 mg) DSC | – | 242.6
780 K, Small sample (50 mg) DSC | – | 246.2
800 K, Small sample (50 mg) DSC | – | 249.8
820 K, Small sample (50 mg) DSC | – | 253.3
840 K, Small sample (50 mg) DSC | – | 256.8
860 K, Small sample (50 mg) DSC | – | 260.1
880 K, Small sample (50 mg) DSC | – | 263.4
900 K, Small sample (50 mg) DSC | – | 266.7
920 K, Small sample (50 mg) DSC | – | 269.8
940 K, Small sample (50 mg) DSC | – | 272.9
960 K, Small sample (50 mg) DSC | – | 275.9
980 K, Small sample (50 mg) DSC | – | 278.9
1000 K, Small sample (50 mg) DSC | – | 281.8
1009 K, Small sample (50 mg) DSC | – | 283.1

Details | Triple point temperature [K]
Crystal 2, DSC | 1643
